Data as given in PubChem BioAssay (NCI).
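A five-concentration, 48-hour dose response in 96-well plates underlies each endpoint, interpolated linearly between surrounding concentrations. GI50 marks 50% less growth. TGI: concentration producing complete growth inhibition.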

What was measured:
Experiment in all cases: DTP human tumour cell line panel, 48 h
[1] = test system: NCI/ADR-RES ovarian
[2] = test system: CAKI-1 renal
[3] = test system: UACC-62 melanoma
[4] = test system: MCF7 breast
[5] = test system: HCT-15 colon
[6] = test system: ACHN renal
[7] = test system: HS 578T breast
[8] = test system: SK-MEL-28 melanoma
[9] = test system: SW-620 colon
[10] = test system: OVCAR-8 ovarian
[11] = test system: 786-0 renal
[12] = test system: CCRF-CEM leukemia
[13] = test system: SF-539 CNS
[14] = test system: HL-60(TB) leukemia
[15] = test system: EKVX NSCLC
[16] = test system: T-47D breast
[17] = test system: M14 melanoma
[18] = test system: SR leukemia
[19] = test system: SNB-75 CNS
[20] = test system: PC-3 prostate
[21] = test system: NCI-H226 lung
[22] = test system: HOP-92 NSCLC
[23] = test system: KM12 colon
[24] = test system: A498 renal
[25] = test system: A549 NSCLC
[26] = test system: UACC-257 melanoma
[27] = test system: SF-268 CNS
[28] = test system: TK-10 renal
[29] = test system: DU-145 prostate
[30] = test system: SN12C renal
[31] = test system: COLO 205 colon
[32] = test system: UO-31 renal
[33] = test system: U251 CNS
[34] = test system: IGROV1 ovarian
[35] = test system: HOP-62 NSCLC
[36] = test system: NCI-H460 lung
[37] = test system: MDA-MB-231 breast
[38] = test system: MDA-MB-435
[39] = test system: SK-OV-3 ovarian
[40] = test system: SNB-19 CNS
[41] = test system: LOX IMVI melanoma
[42] = test system: NCI-H23 lung
[43] = test system: MDA-N
[44] = test system: HCT-116 colon
[45] = test system: SK-MEL-2 melanoma
[46] = test system: MOLT-4 leukemia
[47] = test system: HT29 colon
[48] = test system: OVCAR-3 ovarian
[49] = test system: OVCAR-4 ovarian
[50] = test system: SF-295 CNS
[51] = test system: RPMI-8226 leukemia
[52] = test system: RXF 393 renal
[53] = test system: OVCAR-5 ovarian
[54] = test system: HCC-2998 colon
[55] = test system: K-562 leukemia
[56] = test system: MALME-3M melanoma
[57] = test system: NCI-H522 lung
[58] = test system: BT-549 breast
[59] = test system: SK-MEL-5 melanoma

SMILES: N=C(N)SCc1ccc2c(c1)S(=O)(=O)c1ccccc1O2
- TGI [1]: > 100 µM
- TGI [2]: 51.7 µM
- TGI [3]: 34.9 µM
- TGI [4]: 34.7 µM
- TGI [5]: 87.9 µM
- TGI [6]: 31.9 µM
- TGI [7]: 78.7 µM
- TGI [8]: 33.1 µM
- TGI [9]: 53 µM
- TGI [10]: > 100 µM
- TGI [11]: > 100 µM
- TGI [12]: > 100 µM
- TGI [13]: 55.7 µM
- TGI [14]: > 100 µM
- TGI [15]: 35.2 µM
- TGI [16]: 73.8 µM
- TGI [17]: 62.5 µM
- TGI [18]: > 100 µM
- TGI [19]: 28.7 µM
- TGI [20]: 37.4 µM
- TGI [21]: 48.9 µM
- TGI [22]: 42.8 µM
- TGI [23]: 32.7 µM
- TGI [24]: 35.1 µM
- TGI [25]: 39.8 µM
- TGI [26]: 35.2 µM
- TGI [27]: 93.1 µM
- TGI [28]: 34.7 µM
- TGI [29]: > 100 µM
- TGI [30]: > 100 µM
- TGI [31]: > 100 µM
- TGI [32]: 29.7 µM
- TGI [33]: 38.2 µM
- TGI [34]: 31.5 µM
- TGI [35]: 42.4 µM
- TGI [36]: 53.1 µM
- TGI [37]: > 100 µM
- TGI [38]: 34.3 µM
- TGI [39]: 53.2 µM
- TGI [40]: > 100 µM
- TGI [41]: 60.2 µM
- TGI [42]: 43.4 µM
- TGI [43]: 77 µM
- TGI [44]: 63.1 µM
- TGI [45]: 34.5 µM
- TGI [46]: > 100 µM
- TGI [47]: 33.8 µM
- TGI [48]: 40.5 µM
- TGI [49]: 66.9 µM
- TGI [50]: 56.8 µM
- TGI [51]: > 100 µM
- TGI [52]: 47.5 µM
- TGI [53]: 47.3 µM
- TGI [54]: 56.8 µM
- TGI [55]: > 100 µM

SMILES: COc1ccc(N2C(=O)c3cc([N+](=O)[O-])cnc3S2(=O)=O)cc1
- TGI [1]: > 100 µM
- TGI [3]: > 100 µM
- TGI [5]: > 100 µM
- TGI [6]: > 100 µM
- TGI [7]: > 100 µM
- TGI [8]: > 100 µM
- TGI [9]: > 100 µM
- TGI [10]: > 100 µM
- TGI [11]: > 100 µM
- TGI [12]: > 100 µM
- TGI [56]: > 100 µM
- TGI [14]: > 100 µM
- TGI [15]: > 100 µM
- TGI [18]: > 100 µM
- TGI [19]: > 100 µM
- TGI [57]: > 100 µM
- TGI [20]: > 100 µM
- TGI [21]: > 100 µM
- TGI [22]: > 100 µM
- TGI [23]: > 100 µM
- TGI [25]: > 100 µM
- TGI [27]: > 100 µM
- TGI [28]: > 100 µM
- TGI [29]: > 100 µM
- TGI [30]: > 100 µM
- TGI [31]: > 100 µM
- TGI [58]: > 100 µM
- TGI [32]: > 100 µM
- TGI [33]: > 100 µM
- TGI [34]: > 100 µM
- TGI [35]: > 100 µM
- TGI [36]: > 100 µM
- TGI [37]: > 100 µM
- TGI [38]: > 100 µM
- TGI [39]: > 100 µM
- TGI [40]: > 100 µM
- TGI [41]: > 100 µM
- TGI [42]: > 100 µM
- TGI [43]: > 100 µM
- TGI [44]: > 100 µM
- TGI [45]: > 100 µM
- TGI [46]: > 100 µM
- TGI [47]: > 100 µM
- TGI [48]: > 100 µM
- TGI [49]: > 100 µM
- TGI [50]: > 100 µM
- TGI [51]: > 100 µM
- TGI [52]: > 100 µM
- TGI [53]: > 100 µM
- TGI [54]: > 100 µM
- TGI [55]: > 100 µM

SMILES: COc1cc2cc(NCc3cccc(Cl)c3)nc(C)c2cc1OC
- GI50 [1]: 2.02 µM
- TGI [1]: 22.3 µM
- GI50 [2]: 2.7 µM
- TGI [2]: 24.4 µM
- GI50 [3]: 0.498 µM
- TGI [3]: 5.41 µM
- GI50 [4]: 4.72 µM
- TGI [4]: 23 µM
- GI50 [5]: 2.83 µM
- TGI [5]: 19.9 µM
- GI50 [6]: 2.46 µM
- TGI [6]: 23.1 µM
- GI50 [7]: 4.87 µM
- TGI [7]: 56.7 µM
- GI50 [8]: 0.865 µM
- TGI [8]: 5.42 µM
- GI50 [9]: 1.93 µM
- TGI [9]: 12.6 µM
- GI50 [59]: 3.27 µM
- TGI [59]: 13.7 µM
- GI50 [10]: 3.04 µM
- TGI [10]: 23.6 µM
- GI50 [11]: 1.7 µM
- TGI [11]: 20.4 µM
- GI50 [12]: 2.54 µM
- TGI [12]: > 100 µM
- GI50 [13]: 1.37 µM
- TGI [13]: 7.54 µM
- GI50 [56]: 10.3 µM
- TGI [56]: 23.8 µM
- GI50 [14]: 2.95 µM
- TGI [14]: 55.9 µM
- GI50 [15]: 3.52 µM
- TGI [15]: 36.5 µM
- GI50 [16]: 0.459 µM
- TGI [16]: 9.31 µM
- GI50 [17]: 0.52 µM
- TGI [17]: 10.1 µM
- GI50 [18]: 1.66 µM
- TGI [18]: 44.9 µM
- GI50 [19]: 2.83 µM
- TGI [19]: 19.4 µM
- GI50 [57]: 1.01 µM
- TGI [57]: 10.4 µM
- GI50 [20]: 3.14 µM
- TGI [20]: 23.7 µM
- GI50 [21]: 4.35 µM
- TGI [21]: 26.3 µM
- GI50 [22]: 0.597 µM
- TGI [22]: 14.3 µM
- GI50 [23]: 2.62 µM
- TGI [23]: 15.8 µM
- GI50 [24]: 1.17 µM
- TGI [24]: 11.6 µM
- GI50 [25]: 3.21 µM
- TGI [25]: 37.6 µM
- GI50 [26]: 4.61 µM
- TGI [26]: 19.3 µM
- GI50 [27]: 2.97 µM
- TGI [27]: 23.9 µM
- GI50 [28]: 4.15 µM
- TGI [28]: 36.6 µM
- GI50 [29]: 5.41 µM
- TGI [29]: 20.9 µM
- GI50 [30]: 2.21 µM
- TGI [30]: 17.4 µM
- GI50 [31]: 1.62 µM
- TGI [31]: 9.3 µM
- GI50 [58]: 1.47 µM
- TGI [58]: 8.96 µM
- GI50 [32]: 0.678 µM
- TGI [32]: 14.4 µM
- GI50 [33]: 2.4 µM
- TGI [33]: 16 µM
- GI50 [34]: 1.32 µM
- TGI [34]: 13.9 µM
- GI50 [35]: 0.862 µM
- TGI [35]: 22.2 µM
- GI50 [36]: 1.27 µM
- TGI [36]: 14.6 µM
- GI50 [37]: 1.18 µM
- TGI [37]: 16.6 µM
- GI50 [38]: 0.969 µM
- TGI [38]: 6.26 µM
- GI50 [39]: 4.94 µM
- TGI [39]: 33.5 µM
- GI50 [40]: 2.12 µM
- TGI [40]: 31.8 µM
- GI50 [41]: 0.442 µM
- TGI [41]: 4.36 µM
- GI50 [42]: 0.913 µM
- TGI [42]: 13.9 µM
- GI50 [44]: 0.532 µM
- TGI [44]: 9.63 µM
- GI50 [45]: 1.56 µM
- TGI [45]: 12.6 µM
- GI50 [46]: 3.21 µM
- TGI [46]: 30.4 µM
- GI50 [47]: 0.462 µM
- TGI [47]: 11.4 µM
- GI50 [48]: 3.72 µM
- TGI [48]: 16.3 µM
- GI50 [49]: 1.83 µM
- TGI [49]: 25.4 µM
- GI50 [50]: 0.513 µM
- TGI [50]: 16.8 µM
- GI50 [51]: 0.539 µM
- TGI [51]: 23.4 µM
- GI50 [52]: 3.57 µM
- TGI [52]: 16.3 µM
- GI50 [53]: 1.5 µM
- TGI [53]: 25.4 µM
- GI50 [54]: 2.27 µM
- TGI [54]: 14.5 µM
- GI50 [55]: 1.68 µM
- TGI [55]: 19.8 µM
